Laboratory results as given in patent US4966895A, “Cyclic monophosphates of purine and pyrimidine acyclonucleosides as anti-retroviral agents” (Merck & Co. Inc., priority 1989, dated 1990).
In brackets after ≈: the same amount, converted by molar mass. Structures can show the parent of a compound that is named as a salt. Where two headings read alike, the source gives them in different places.

How the values were obtained:
visna virus = assay: Inhibition of visna virus-induced CPE in sheep choroid plexus (SCP) cells; format: cell-based, strain 1514; conditions: Visna-maedi virus, 144 h
Description: Activity of 9-[(2-hydroxy-1,3,2-dioxophosphorian-5-yl)oxymethyl]guanine P-oxide, sodium salt (2'-NOR-cGMP) against visna virus in sheep choroid plexus cells.
Visna virus, strain 1514, is a lentivirus of the retrovirus family. It was chosen because of its genetic and biologic similarity to the human immunodeficiency viruses (HIV). Since visna virus and the human immunodeficiency virus are closely related retroviruses, activity against the visna virus by a compound is felt to predict activity against the human immunodeficiency virus by the same compound. (See Visna Virus as an In Vitro Model for Human Immunodeficiency Virus and Inhibition by Ribavirin, Phosphonoformate, and 2',3'-Dideoxy-nucleosides, Frank K. B.; McKernan P.A.; Smith R.A.; Smee D.F.; Antimicrobiol Agents and Chemotherapy, Sept. 1987; Vol. 31, No. 9 Pg 1369-1374.) The virus has been cultivated and plaque purified in SCP cells fed with MEM, HEPES, gentamicin and 2% lamb serum.
(§1) Visna virus is cultivated in low passage cells derived from the choroid plexus (SCP) of a newborn lamb. The choroid plexus is dissected from the newborn lamb, minced and diluted in minimum essential medium (MEM), containing 20% fetal bovine serum (FBS), 1 mM N 2-hydroxyethylpiperazine-N'-2-ethane sulfonic acid (HEPES), 50 μg/ml gentamicin at PH 7.4. After initial cultivation, cells are dispersed by addition of trypsin (0.25%) plus EDTA, split 1:2 and added to MEM+10% FBS, HEPES, gentamicin and reincubated. At approximately passage 4 there are adequate numbers of cells for freezing and storage in liquid nitrogen.
(§2) For antiviral assays, 0.2 ml SCP cells (0.7×10^5 cells/ml) are inoculated into wells of 96 well microtiter plates and incubated for 18-24 hours.
(§3) The medium is decanted from the cells, and drug and virus(~320-50% infectious doses) are added within 15 minutes. Each concentration of drug (serial two-fold or half-log dilutions) are added in 0.1 ml volumes to each of 6 wells. Visna virus is added (0.1 ml) to 4 wells for observation of virus inhibitory activity.
(§4) Virus free test medium is added to two wells (0.1 mL) for observation of drug cytotoxicity. Experimental controls include: cell control (cells with 0.2 mL medium) and virus controls (cells with 0.1 mL virus and 0.1 mL medium). The degree of CPE inhibition and drug cytotoxicity in comparison with virus and cell controls is observed microscopically after 6 days of incubation at 37° C. Fresh medium and drug dilutions are placed on the cells after 3 days of incubation. Virus CPE and drug cytotoxicity are scored on a 0-4 basis with 4 representing total cell destruction. The lowest concentration of drug producing ≥50% inhibition of virus-induced CPE is considered the minimum inhibitory concentration (MIC). The lowest concentration of drug producing a score of […] or visable alteration in cell morphology will be considered the minimum cytotoxic concentration (MCC). Using the observed percent CPE, the MIC will be calculated by linear regression analysis.

in vitro = format: cell-based; conditions: sheep, choroid plexus cells
Description: as §1, §2, §3, §4

[1] = mean of individual values, ≥50% inhibition of virus-induced CPE, 6 days, 37° C, sheep choroid plexus cells, read-out: MIC (minimum inhibitory concentration), Mean
[2] = MCC (minimum cytotoxic concentration), Range
[3] = read-out: MIC (minimum inhibitory concentration), Mean

Structure (SMILES)	MIC (visna virus; [1])	MCC at 144 h (in vitro; [2])	MIC (visna virus; read-out: MIC (minimum inhibitory concentration), Individual Values)	MIC (visna virus; [3])	MCC at 144 h (in vitro; MCC (minimum cytotoxic concentration), Individual Values)	MCC at 144 h (in vitro; range of individual values, 6 days, 37° C, virus free, read-out: MCC (minimum cytotoxic concentration), Range)	MCC at 144 h (in vitro; lowest concentration producing a score of ≤1 or visible alteration in cell morphology, 6 days, 37° C, virus free, read-out: MCC (minimum cytotoxic concentration), Individual Values)
Nc1nc2c(ncn2COC2COP(=O)(O)OC2)c(=O)[nH]1 (centres unmarked) [2'-nor-cGMP, 9-[(2-hydroxy-1,3,2-dioxophosphorian-5-yl)oxymethyl]guanine P-oxide, sodium salt]	24 µg/mL	32 to 100 µg/mL					
Cc1cn([C@H]2C[C@H](N=[N+]=[N-])[C@@H](CO)O2)c(=O)[nH]c1=O [Azidothymidine]		40 µg/mL	10 µg/mL (≈ 37.4 µM)	10 µg/mL (≈ 37.4 µM)	40 µg/mL		
O=C(O)P(=O)(O)O [Phosphonoformate]				57.4 µg/mL (≈ 456 µM)		100 µg/mL	100 µg/mL
NC(=O)c1ncn([C@@H]2O[C@H](CO)[C@@H](O)[C@H]2O)n1 [Virazole]	175 µg/mL (≈ 718 µM)	100 to 320 µg/mL					
